Measured values from patent US6969609B1 (priority 1998, dated 2005).

System: BMDC
Assay type: cell-based, C57BL/6 mice

## TNF-α
  B7-1 % positive cells: 85%
  B7-1 MFI: (320)
  B7-2 % positive cells: 71%
  B7-2 MFI: (412)
  CD11b % positive cells: 84%
  CD11b MFI: (729)
  CD11c % positive cells: 20%
  CD11c MFI: (149)
  CD40 % positive cells: 65%
  CD40 MFI: (159)
  H-2K^b/D^b % positive cells: 91%
  H-2K^b/D^b MFI: (195)
  I-A^b % positive cells: 95%
  I-A^b MFI: (1189)
  ICAM-1 % positive cells: 97%
  ICAM-1 MFI: (421)
  LFA-3 % positive cells: 87%
  LFA-3 MFI: (249)
